# According to ChEMBL document CHEMBL5729531, “Neprilysin inhibitors” (2023):
# Target: Neprilysin/Angiotensin-converting enzyme (Homo sapiens, UniProt P12821+P08473)
# Test: Enzyme Inhibition Assay: The assays were performed in 384-well white opaque plates at 37° C. using the fluorogenic peptide substrates at a concentration of 10 μM in Assay Buffer (NEP: 50 mM HEPES, pH 7.5, 100 mM NaCl, 0.01% polyethylene glycol sorbitan monolaurate (Tween-20), 10 μM ZnSO4; ACE: 50 mM HEPES, pH 7.5, 100 mM NaCl, 0.01% Tween-20, 1 μM ZnSO4). The respective enzymes were used at …
# Assay type: protein-complex assay
# Description: Enzyme Inhibition Assay: The assays were performed in 384-well white opaque plates at 37° C. using the fluorogenic peptide substrates at a concentration of 10 μM in Assay Buffer (NEP: 50 mM HEPES, pH 7.5, 100 mM NaCl, 0.01% polyethylene glycol sorbitan monolaurate (Tween-20), 10 μM ZnSO4; ACE: 50 mM HEPES, pH 7.5, 100 mM NaCl, 0.01% Tween-20, 1 μM ZnSO4). […] Test compounds were added to the enzymes and incubated for 30 minute at 37° C. prior to initiating the reaction by the addition of substrate. Reactions were terminated after 20 minutes of incubation at 37° C. by the addition of glacial acetic acid to a final concentration of 3.6% (v/v).
structure (smiles),measurement,value
O=C(O)C(=O)NC(Cc1ccc(-c2ccccc2)cc1)CC(O)C(=O)O (stereo unspecified),Ki,35.5 nM
